In paper PMC11595424, “Heterocycles and a Sorbicillinoid from the Coral-Derived Fungus Penicillium chrysogenum” (Marine Drugs, 2024):

Columns and labels:
Assay type in all cases: cell-based
[1] = tested on: L-02 (normal human hepatocytes); assay: Cytotoxicity assay, SRB method, L-02; conditions: for IC50: Homo sapiens, L02, L-02 cells, SRB method
Description: (§1) The cytotoxic activity against the K562 (human leukemia) cell line was evaluated by MTT method, and the cytotoxic activities against L-02 (normal human hepatocytes), ASPC-1 (human pancreatic cancer), MDA-MB-231 (human breast cancer), NCI-H446, and NCI-H446/EP (human small cell lung cancer) cell lines were determined by SRB method. The difference between the two human small-cell lung cancer cell lines is that NCI-H446 is a sensitive cell line while the NCI-H446/EP cell line is resistant to cisplatin, etoposide, SN38, and doxorubicin. As a positive control, doxorubicin was used. […]
(§2) The cytotoxic activity against the K562 (human leukemia) cell line was evaluated by MTT method, and the cytotoxic activities against L-02 (normal human hepato-cytes), ASPC-1 (human pancreatic cancer), MDA-MB-231 (human breast cancer), NCI-H446 and NCI-H446/EP (human small cell lung cancer) cell lines were determined by SRB method.
(§3) Doxorubicin was used as a positive control.
(§4) In the cytotoxic assay, preliminary screening for cytotoxicity of compounds was performed at the concentration of 30 μM, then the compounds with inhibition rate greater than 60 % were rescreened for the IC 50 values. The blank control, vehicle control, positive control (doxorubicin) and compounds at five different concentrations (30, 15, 3.75, 1.875 and 0.9375 μM) were tested three times and the average OD values were taken to calculated IC50 values.
(§5) Table S11. Cytotoxic activities of 1−5
(§6) Compound c Inhibition rate (%) […]
(§7) a Doxorubicin was used as positive control. […]

[2] = tested on: K562 (human leukemia) cell line; assay: Cytotoxicity assay, MTT method, K562; conditions: for IC50: Homo sapiens, K562 cell line, MTT method; for Inhibition rate (%): Table S12, K562, IC50 rescreen
Description: as §1, §2, §3, §4, §5, §6
a Doxorubicin was used as positive control.
Table S12. Cytotoxicity against K562 cell line of 5

[3] = tested on: NCI-H446 (human small cell lung cancer) cell line; assay: Cytotoxicity assay, SRB method, NCI-H446; conditions: for IC50: Homo sapiens, NCI-H446 (sensitive) cells, SRB method; for Inhibition rate (%): Table S13, NCI-H446, IC50 rescreen
Description: as §1, §2, §3, §4, §5, §6, §7
Table S13. Cytotoxicity against NCI-H446 cell line of 5 c (μM) OD value Inhibition rate (%) IC 50 ( μM)

[4] = tested on: MDA-MB-231 (human breast cancer); assay: Cytotoxicity assay, SRB method, MDA-MB-231; conditions: for IC50: Homo sapiens, MDA-MB-231 cells, SRB method
Description: as §1, §2, §3, §4, §5, §6, §7

[5] = tested on: NCI-H446/EP (human small cell lung cancer) cell line; assay: Cytotoxicity assay, SRB method, NCI-H446/EP; conditions: for IC50: Homo sapiens, NCI-H446/EP cells (resistant to cisplatin, etoposide, SN38, doxorubicin), SRB method
Description: as §1, §2, §3, §4, §5, §6, §7

[6] = tested on: ASPC-1 (human pancreatic cancer); assay: Cytotoxicity assay, SRB method, ASPC-1; conditions: for IC50: Homo sapiens, ASPC1, ASPC-1 cells, SRB method
Description: as §1, §2, §3, §4, §5, §6, §7

[7] = tested on: K562 (human leukemia) cell line; assay: Cytotoxicity assay, MTT method, K562; conditions: Table S12, K562, IC50 rescreen, c 7.5 μM
[8] = tested on: NCI-H446 (human small cell lung cancer) cell line; assay: Cytotoxicity assay, SRB method, NCI-H446; conditions: Table S13, NCI-H446, IC50 rescreen, c 7.5 μM
[9] = Table S11, preliminary screening, c 30 μM
[10] = Table S11, positive control, c 1 μM

SMILES | IC50 [1] [µM] | Inhibition rate (%) L-02 [1, 9] [%] | IC50 [2] [µM] | Inhibition rate (%) K562 [2, 9] [%] | IC50 [3] [µM] | Inhibition rate (%) NCI-H446 [3, 9] [%] | IC50 [4] [µM] | Inhibition rate (%) MDA-MB-231 [4, 9] [%] | IC50 [5] [µM] | Inhibition rate (%) NCI-H446/EP [5, 9] [%] | IC50 [6] [µM] | Inhibition rate (%) ASPC-1 [6, 9] [%] | further results
CC1C(CCc2nc3ccccc3c(=O)[nH]2)C2CC(=O)C1(C)C(=O)C2(C)O (stereo not shown) [Compound 1, Chrysoquinazolinone A] | > 30 | -0.42 | > 30 | 35.08 | > 30 | 2.22 | > 30 | -4.59 | > 30 | 9.68 | > 30 | 0.00 | –
CC(c1nc2ccccc2c(=O)[nH]1)N1CCCC1=O (stereo not shown) [Compound 2, Chrysoquinazolinone B] | > 30 | 0.28 | > 30 | 33.57 | > 30 | 4.70 | > 30 | 5.80 | > 30 | 12.47 | > 30 | 7.93 | –
Cc1cc(O)c(CC[C@@H](C)C(=O)O)c2scnc12 [Compound 3a, Chrysobenzothiazole A] | > 30 | 10.94 | > 30 | 20.39 | > 30 | 1.04 | > 30 | 0.40 | > 30 | 11.04 | > 30 | 18.16 | –
Cc1cc(O)c(CC[C@H](C)C(=O)O)c2scnc12 [Compound 3b, Chrysobenzothiazole A] | > 30 | -5.91 | > 30 | 34.54 | > 30 | 9.14 | > 30 | -4.16 | > 30 | 14.64 | > 30 | 2.09 | –
Cc1c(O)cc(CCC(C)C(=O)O)c2ncsc12 (stereo not shown) [Compound 4, chrysobenzothiazole B] | > 30 | -1.81 | > 30 | 37.63 | > 30 | 6.55 | > 30 | 6.32 | > 30 | 7.13 | > 30 | 8.56 | –
C/C=C/C=C/C(=O)c1cc(C)c(C(=O)O)c(C)c1O [Compound 5, 4-Carboxylsorbicillin] | > 30 | 13.89 | 15 | 97.15 | 16.9 | 86.08 | > 30 | -14.63 | > 30 | 54.99 | > 30 | 25.47 | Inhibition rate (%) [7]: 20.85%; Inhibition rate (%) ([2]; c 0.9375 μM): 8.60%; Inhibition rate (%) ([2]; c 1.875 μM): 7.71%; Inhibition rate (%) ([2]; c 3.75 μM): 13.35%; Inhibition rate (%) ([2]; c 15 μM): 47.36%; Inhibition rate (%) ([2]; c 30 μM): 77.22%; Inhibition rate (%) [8]: 14.10%; Inhibition rate (%) ([3]; c 0.9375 μM): -8.00%; Inhibition rate (%) ([3]; c 1.875 μM): 0.43%; Inhibition rate (%) ([3]; c 3.75 μM): 2.66%; Inhibition rate (%) ([3]; c 15 μM): 51.20%; Inhibition rate (%) ([3]; c 30 μM): 74.28%
COc1cccc2c1C(=O)c1c(O)c3c(c(O)c1C2=O)C[C@@](O)(C(=O)CO)C[C@@H]3O[C@H]1C[C@H](N)[C@H](O)[C@H](C)O1 [Doxorubicin, reference compound] | < 1 | – | < 1 | – | < 1 | – | < 1 | – | > 1 | – | > 1 | – | Inhibition rate (%) L-02 [1, 10]: 87.67%; Inhibition rate (%) K562 [2, 10]: 100.00%; Inhibition rate (%) ([2]; c 1 μM): 100.00%; Inhibition rate (%) NCI-H446 [3, 10]: 52.20%; Inhibition rate (%) MDA-MB-231 [4, 10]: 65.37%; Inhibition rate (%) NCI-H446/EP [5, 10]: 27.60%; Inhibition rate (%) ASPC-1 [6, 10]: 29.65%
